In patent publication US11247990B1, “Bicyclic fused pyridine compounds as inhibitors of TAM kinases” (ARRAY BIOPHARMA INC., priority 2017, dated 2022):
pIC50: −log10 of the molar value.

What was measured:
Conditions in all cases: averaged IC50
[1] = biological target: GST-tagged recombinant human TYRO3 kinase domain (Homo sapiens (Human), UniProt Q06418); test: TYRO3 Enzyme Assay (LanthaScreen Eu Kinase Binding, TR-FRET)
Procedure, shortened: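 LanthaScreen Eu binding (tracer displacement) format read by TR-FRET after 60 min at 22 °C. Emission ratio converted to percent of control; IC50 taken where a 4-parameter logistic fit crosses 50 POC.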

[2] = biological target: His-tagged recombinant human AXL cytoplasmic domain (Homo sapiens (Human), UniProt P30530); test: AXL Enzyme Assay (LanthaScreen Eu Kinase Binding, TR-FRET)
Chain of His-tagged recombinant human AXL cytoplasmic domain (P30530 473-894): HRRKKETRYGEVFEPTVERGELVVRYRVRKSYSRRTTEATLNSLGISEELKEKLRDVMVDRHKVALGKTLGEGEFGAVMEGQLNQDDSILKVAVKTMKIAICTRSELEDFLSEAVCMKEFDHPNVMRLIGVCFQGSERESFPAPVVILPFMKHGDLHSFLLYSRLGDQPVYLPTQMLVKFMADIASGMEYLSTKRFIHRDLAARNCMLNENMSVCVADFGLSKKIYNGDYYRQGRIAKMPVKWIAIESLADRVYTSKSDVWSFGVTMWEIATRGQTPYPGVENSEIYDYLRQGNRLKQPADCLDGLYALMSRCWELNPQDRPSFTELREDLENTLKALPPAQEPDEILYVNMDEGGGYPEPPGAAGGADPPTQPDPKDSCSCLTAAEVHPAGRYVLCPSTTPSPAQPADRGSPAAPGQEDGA
Procedure, shortened: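 Compound displacement measured by TR-FRET after 60 min at 22 °C, using Eu-based LanthaScreen binding technology. Ratiometric emission converted to percent of control, fitted to a 4-parameter logistic curve, with IC50 at 50 POC.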

[3] = biological target: His-tagged recombinant human MER cytoplasmic domain (Homo sapiens (Human), UniProt Q12866); test: MER Enzyme Assay (LanthaScreen Eu Kinase Binding, TR-FRET)
Chain of His-tagged recombinant human MER cytoplasmic domain (Q12866 527-999): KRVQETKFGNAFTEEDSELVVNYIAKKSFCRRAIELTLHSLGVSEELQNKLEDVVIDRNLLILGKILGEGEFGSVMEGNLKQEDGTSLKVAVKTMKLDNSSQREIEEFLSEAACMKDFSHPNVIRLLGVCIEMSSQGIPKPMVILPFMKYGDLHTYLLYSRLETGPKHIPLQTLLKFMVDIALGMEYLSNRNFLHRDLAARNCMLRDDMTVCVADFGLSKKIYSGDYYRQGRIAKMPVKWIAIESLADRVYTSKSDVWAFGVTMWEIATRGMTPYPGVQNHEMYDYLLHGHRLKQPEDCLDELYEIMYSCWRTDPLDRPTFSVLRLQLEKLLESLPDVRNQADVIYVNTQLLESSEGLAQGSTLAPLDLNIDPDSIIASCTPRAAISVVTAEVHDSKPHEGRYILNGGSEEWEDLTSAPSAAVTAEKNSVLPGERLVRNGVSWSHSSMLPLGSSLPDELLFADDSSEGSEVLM
Procedure, shortened: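 Percent of control, derived from ratiometric TR-FRET emission, was fitted to a 4-parameter logistic curve and IC50 taken at 50 POC. Binding was read after 60 min at 22 °C using Eu-based LanthaScreen technology and recombinant His-tagged MER cytoplasmic domain.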

Chain of GST-tagged recombinant human TYRO3 kinase domain (Q06418 518-790): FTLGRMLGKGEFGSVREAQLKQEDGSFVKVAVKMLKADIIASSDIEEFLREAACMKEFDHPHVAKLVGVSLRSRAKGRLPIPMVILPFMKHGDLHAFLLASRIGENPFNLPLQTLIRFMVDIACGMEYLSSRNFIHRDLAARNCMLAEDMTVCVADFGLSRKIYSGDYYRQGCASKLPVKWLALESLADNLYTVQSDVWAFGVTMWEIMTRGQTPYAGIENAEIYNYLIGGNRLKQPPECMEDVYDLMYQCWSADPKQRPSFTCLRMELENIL

For `CNc1cc2c(cn1)c(-c1cnn(C)c1)nn2[C@H]1CC[C@@H](Oc2cccnc2C#N)CC1` [Example 140, 3-(((1s,4s)-4-(3-(1-methyl-1H-pyrazol-4-yl)-6-(methylamino)-1H-pyrazolo[4,3-c]pyridin-1-yl)cyclohexyl)oxy)picolinonitrile], the pIC50 [1] was over 8.00, the pIC50 [2] was over 8.00 and the pIC50 [3] was over 8.00.
Compound `CCNc1cc2c(cn1)c(-c1ccc3c(c1)CN(C)S3(=O)=O)nn2[C@H]1CC[C@@H](Oc2cn(C)nc2C(F)(F)F)CC1` [Example 222, 5-(6-(ethylamino)-1-((1s,4s)-4-((1-methyl-3-(trifluoromethyl)-1H-pyrazol-4-yl)oxy)cyclohexyl)-1H-pyrazolo[4,3-c]pyridin-3-yl)-2-methyl-2,3-dihydrobenzo[d]isothiazole 1,1-dioxide] has a pIC50 [1] of over 8.00, a pIC50 [2] of over 8.00 and a pIC50 [3] of over 8.00.
With `CNc1cc2c(cn1)c(-c1cnn(CCS(C)(=O)=O)c1)nn2[C@H]1CC[C@@H](Oc2nccnc2C)CC1` [Example 211, N-methyl-1-((1s,4s)-4-((3-methylpyrazin-2-yl)oxy)cyclohexyl)-3-(1-(2-(methylsulfonyl)ethyl)-1H-pyrazol-4-yl)-1H-pyrazolo[4,3-c]pyridin-6-amine] the pIC50 [1] was 7.00 to 8.00, the pIC50 [2] was over 8.00 and the pIC50 [3] was over 8.00.
`CCNc1cc2c(cn1)c(C1CCN(CCOC)CC1)nn2[C@H]1CC[C@@H](Oc2nccc(C(F)(F)F)c2F)CC1` [Example 327, N-ethyl-1-((1s,4s)-4-((3-fluoro-4-(trifluoromethyl)pyridin-2-yl)oxy)cyclohexyl)-3-(1-(2-methoxyethyl)piperidin-4-yl)-1H-pyrazolo[4,3-c]pyridin-6-amine] was tested, and the pIC50 [1] was 7.00 to 8.00, the pIC50 [2] was over 8.00 and the pIC50 [3] was over 8.00.
Compound `CCNc1cc2c(cn1)c(-c1cnn(C[C@@H](O)CO)c1)nn2[C@H]1CC[C@@H](Oc2cccc(Cl)c2F)CC1` [Example 434, (R)-3-(4-(1-((1s,4S)-4-(3-chloro-2-fluorophenoxy)cyclohexyl)-6-(ethylamino)-1H-pyrazolo[4,3-c]pyridin-3-yl)-1H-pyrazol-1-yl)propane-1,2-diol] has a pIC50 [1] of over 8.00, a pIC50 [2] of over 8.00 and a pIC50 [3] of over 8.00.
Compound `CNc1cc2c(cn1)c(-c1cnn(C)c1)nn2[C@H]1CC[C@@H](Oc2ccccc2S(C)(=O)=O)CC1` [Example 375, N-methyl-3-(1-methyl-1H-pyrazol-4-yl)-1-((1s,4s)-4-(2-(methylsulfonyl)phenoxy)cyclohexyl)-1H-pyrazolo[4,3-c]pyridin-6-amine] has a pIC50 [1] of 7.00 to 8.00, a pIC50 [2] of over 8.00 and a pIC50 [3] of over 8.00.
With `CCNc1cc2c(cn1)c(C1CCN(C3CCN(C)CC3)CC1)nn2[C@H]1CC[C@@H](Oc2nccc(C(F)(F)F)c2F)CC1` [Example 328, N-ethyl-1-((1s,4s)-4-((3-fluoro-4-(trifluoromethyl)pyridin-2-yl)oxy)cyclohexyl)-3-(1′-methyl-[1,4′-bipiperidin]-4-yl)-1H-pyrazolo[4,3-c]pyridin-6-amine] the pIC50 [1] was over 8.00, the pIC50 [2] was over 8.00 and the pIC50 [3] was over 8.00.
Compound `CNc1cc2c(cn1)c(-c1cnn(C(CO)CO)c1)nn2[C@H]1CC[C@@H](Oc2cccc(F)c2)CC1` [Example 409, 2-(4-(1-((1s,4s)-4-(3-fluorophenoxy)cyclohexyl)-6-(methylamino)-1H-pyrazolo[4,3-c]pyridin-3-yl)-1H-pyrazol-1-yl)propane-1,3-diol] has a pIC50 [1] of 7.00 to 8.00, a pIC50 [2] of over 8.00 and a pIC50 [3] of over 8.00.
In the case of `CNc1cc2c(cn1)c(-c1cnn(C3CCN(C)CC3)c1)nn2[C@H]1CC[C@@H](Oc2nccnc2C)CC1` [Example 214, N-methyl-3-(1-(1-methylpiperidin-4-yl)-1H-pyrazol-4-yl)-1-((1s,4s)-4-((3-methylpyrazin-2-yl)oxy)cyclohexyl)-1H-pyrazolo[4,3-c]pyridin-6-amine], the pIC50 [1] was 7.00 to 8.00, the pIC50 [2] was over 8.00 and the pIC50 [3] was over 8.00.
`CNc1cc2c(cn1)c(-c1ccc(CN3CCN(C)CC3)cc1)nn2[C@H]1CC[C@@H](Oc2cnn(C)c2C(F)(F)F)CC1` [Example 264, N-methyl-1-((1s,4s)-4-((1-methyl-5-(trifluoromethyl)-1H-pyrazol-4-yl)oxy)cyclohexyl)-3-(4-((4-methylpiperazin-1-yl)methyl)phenyl)-1H-pyrazolo[4,3-c]pyridin-6-amine] showed a pIC50 [1] of 7.00 to 8.00, a pIC50 [2] of over 8.00 and a pIC50 [3] of over 8.00.
`CCNc1cc2c(cn1)c(-c1cnn(C[C@H](O)C(C)(C)O)c1)nn2[C@H]1CC[C@@H](Oc2cccc(F)c2F)CC1` [Example 445, (S)-1-(4-(1-((1s,4R)-4-(2,3-difluorophenoxy)cyclohexyl)-6-(ethylamino)-1H-pyrazolo[4,3-c]pyridin-3-yl)-1H-pyrazol-1-yl)-3-methylbutane-2,3-diol] showed a pIC50 [1] of over 8.00, a pIC50 [2] of over 8.00 and a pIC50 [3] of over 8.00.
With `CNc1cc2c(cn1)c(-c1cnn(C)c1)nn2[C@H]1CC[C@@H](Oc2cnn(C)c2C(F)(F)F)CC1` [Example 262, N-methyl-3-(1-methyl-1H-pyrazol-4-yl)-1-((1s,4s)-4-((1-methyl-5-(trifluoromethyl)-1H-pyrazol-4-yl)oxy)cyclohexyl)-1H-pyrazolo[4,3-c]pyridin-6-amine] the pIC50 [1] was 7.00 to 8.00, the pIC50 [2] was over 8.00 and the pIC50 [3] was over 8.00.
`CCNc1cc2c(cn1)c(-c1cnn(CC(=O)NC)c1)nn2[C@H]1CC[C@@H](Oc2nccc(C(F)(F)F)c2F)CC1` [Example 258, 2-(4-(6-(ethylamino)-1-((1s,4s)-4-((3-fluoro-4-(trifluoromethyl)pyridin-2-yl)oxy)cyclohexyl)-1H-pyrazolo[4,3-c]pyridin-3-yl)-1H-pyrazol-1-yl)-N-methylacetamide] was tested, and the pIC50 [1] was over 8.00, the pIC50 [2] was over 8.00 and the pIC50 [3] was over 8.00.
In the case of `CCNc1cc2c(cn1)c(N1CCNCC1)nn2[C@H]1CC[C@@H](Oc2cccc(C(F)(F)F)c2F)CC1` [Example 490, N-ethyl-1-((1s,4s)-4-(2-fluoro-3-(trifluoromethyl)phenoxy)cyclohexyl)-3-(piperazin-1-yl)-1H-pyrazolo[4,3-c]pyridin-6-amine], the pIC50 [1] was over 8.00, the pIC50 [2] was over 8.00 and the pIC50 [3] was over 8.00.
For `CCNc1cc2c(cn1)c(-c1cnn(C(CO)CO)c1)nn2[C@H]1CC[C@@H](Oc2cccc(F)c2F)CC1` [Example 415, 2-(4-(1-((1s,4s)-4-(2,3-difluorophenoxy)cyclohexyl)-6-(ethylamino)-1H-pyrazolo[4,3-c]pyridin-3-yl)-1H-pyrazol-1-yl)propane-1,3-diol], the pIC50 [1] was over 8.00, the pIC50 [2] was over 8.00 and the pIC50 [3] was over 8.00.
With `CNc1cc2c(cn1)c(-c1ccc(CN3CCN(CCO)CC3)cc1)nn2[C@H]1CC[C@@H](Oc2ccc(=O)n(C)n2)CC1` [Example 78, 6-(((1s,4s)-4-(3-(4-((4-(2-hydroxyethyl)piperazin-1-yl)methyl)phenyl)-6-(methylamino)-1H-pyrazolo[4,3-c]pyridin-1-yl)cyclohexyl)oxy)-2-methylpyridazin-3(2H)-one] the pIC50 [1] was 6.00 to 7.00, the pIC50 [2] was over 8.00 and the pIC50 [3] was over 8.00.
Compound `CNc1cc2c(cn1)c(-c1cnn(C)c1)nn2[C@H]1CC[C@@H](Oc2nccc(C(F)(F)F)c2F)CC1` [Example 173, 1-((1s,4s)-4-((3-fluoro-4-(trifluoromethyl)pyridin-2-yl)oxy)cyclohexyl)-N-methyl-3-(1-methyl-1H-pyrazol-4-yl)-1H-pyrazolo[4,3-c]pyridin-6-amine] has a pIC50 [1] of 7.00 to 8.00, a pIC50 [2] of over 8.00 and a pIC50 [3] of over 8.00.
Compound `CNc1cc2c(cn1)c(N1CCNCC1)nn2[C@H]1CC[C@@H](Oc2nccc(C(F)(F)F)c2F)CC1` [Example 495, 1-((1s,4s)-4-((3-fluoro-4-(trifluoromethyl)pyridin-2-yl)oxy)cyclohexyl)-N-methyl-3-(piperazin-1-yl)-1H-pyrazolo[4,3-c]pyridin-6-amine] has a pIC50 [1] of over 8.00, a pIC50 [2] of over 8.00 and a pIC50 [3] of over 8.00.
`CCNc1cc2c(cn1)c(N1CCNCC1)nn2[C@H]1CC[C@@H](Oc2nccc(C(F)(F)F)c2F)CC1` [Example 343, N-ethyl-1-((1s,4s)-4((3-fluoro-4-(trifluoromethyl)pyridin-2-yl)oxy)cyclohexyl)-3-(piperazin-1-yl)-1H-pyrazolo[4,3-c]pyridin-6-amine] showed a pIC50 [1] of over 8.00, a pIC50 [2] of over 8.00 and a pIC50 [3] of over 8.00.
For `CCNc1cc2c(cn1)c(-c1cnn(C)c1)nn2[C@H]1CC[C@@H](Oc2nccc(C)c2F)CC1` [Example 346, N-ethyl-1-((1s,4s)-4-((3-fluoro-4-methylpyridin-2-yl)oxy)cyclohexyl)-3-(1-methyl-1H-pyrazol-4-yl)-1H-pyrazolo[4,3-c]pyridin-6-amine], the pIC50 [1] was 7.00 to 8.00, the pIC50 [2] was over 8.00 and the pIC50 [3] was over 8.00.
For `CNc1cc2c(cn1)c(-c1ccc(=O)n(C)c1)nn2[C@H]1CC[C@@H](Oc2cccnc2C(F)(F)F)CC1` [Example 217, 1-methyl-5-(6-(methylamino)-1-((1s,4s)-4-((2-(trifluoromethyl)pyridin-3-yl)oxy)cyclohexyl)-1H-pyrazolo[4,3-c]pyridin-3-yl)pyridin-2(1H)-one], the pIC50 [1] was over 8.00, the pIC50 [2] was over 8.00 and the pIC50 [3] was over 8.00.
In the case of `CCNc1cc2c(cn1)c(-c1cnn(C[C@@H](O)CO)c1)nn2[C@H]1CC[C@@H](Oc2cc(Cl)ccn2)CC1` [Example 246, (R)-3-(4-(1-((1s,4S)-4-((4-chloropyridin-2-yl)oxy)cyclohexyl)-6-(ethylamino)-1H-pyrazolo[4,3-c]pyridin-3-yl)-1H-pyrazol-1-yl)propane-1,2-diol], the pIC50 [1] was 7.00 to 8.00, the pIC50 [2] was over 8.00 and the pIC50 [3] was over 8.00.
`CCNc1cc2c(cn1)c(-c1cnn(CC(C)(O)CO)c1)nn2[C@H]1CC[C@@H](Oc2ccccc2F)CC1` (stereo partly drawn) [Example 431, 3-(4-(6-(ethylamino)-1-((1s,4s)-4-(2-fluorophenoxy)cyclohexyl)-1H-pyrazolo[4,3-c]pyridin 3-yl)-1H-pyrazol-1-yl)-2-methylpropane-1,2-diol] was tested, and the pIC50 [1] was 7.00 to 8.00, the pIC50 [2] was over 8.00 and the pIC50 [3] was over 8.00.
